The source of these data is ChEMBL document CHEMBL1201862, “PubChem BioAssay data set” (2004).

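Five compound concentrations were applied to cells in 96-well plates for 48 hours; endpoints were derived by simple linear interpolation of the resulting dose-response curve. Abbreviation: GI50, concentration required for 50% inhibition of growth.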 Calls of active or inactive are those of the source. Rule as the data show it: active = GI50 up to about 1.1 µM and inactive = higher.

Test systems include OVCAR-5; OVCAR-4; SNB-19; SK-MEL-28; COLO 205; SR; NCI-H226; NCI-H460; SF-295; Malme-3M; EKVX; HOP-92; HT-29; OVCAR-8; UACC-257; HCT-15; NCI-H23; HCC 2998.
Experiment in all cases: NCI anticancer screen, dose series, 48 h

Take `COc1cccc(-c2cc(O)c3cc(N4CCN(C)CC4)ccc3n2)c1`: the GI50 is 5.14 µM (inactive) with OVCAR-5; 5.28 µM (inactive) with OVCAR-4; 2.77 µM (inactive) in the assay on SNB-19; 1.47 µM (inactive) with SK-MEL-28; 1.67 µM (inactive) with COLO 205; 0.42 µM (active) in the assay on SR. In addition, the GI50 in the assay with NCI-H226 is 1.71 µM (inactive); in the assay on NCI-H460, 2.99 µM (inactive); with SF-295, 1.71 µM (inactive); in the assay on Malme-3M, 0.641 µM (active); in the assay on EKVX, 3.37 µM (inactive); with HOP-92, 1.06 µM (active). Moreover, the GI50 in the assay with HT-29 was 2.24 µM (inactive); in the assay with OVCAR-8, 2.01 µM (inactive); in the assay on UACC-257, 0.706 µM (active); with HCT-15, 1.75 µM; in the assay with NCI-H23, 2.54 µM (inactive); with HCC 2998, 2.01 µM (inactive).
Turning to `COc1ccc2nc3c4c(nccc4c2c1)-c1ncccc1C3=O`, the GI50 is 0.971 µM (active) with OVCAR-5; 0.439 µM (active) in the assay with OVCAR-4; 0.0656 µM (active) in the assay with SNB-19; 0.109 µM (active) in the assay on SK-MEL-28; 0.604 µM (active) in the assay with COLO 205; 0.00542 µM (active) in the assay on SR. Moreover, the GI50 is 0.0622 µM (active) with NCI-H226; 0.0261 µM (active) in the assay on NCI-H460; 0.08 µM (active) in the assay with SF-295; 0.0791 µM (active) in the assay with Malme-3M; 0.132 µM (active) with EKVX; 0.092 µM (active) in the assay on HOP-92. In addition, the GI50 with HT-29 is 0.499 µM (active); with OVCAR-8, 0.034 µM (active); in the assay on UACC-257 it was 0.0834 µM (active); in the assay on HCT-15 it was 0.005 µM; in the assay with NCI-H23, 0.0887 µM (active); in the assay with HCC 2998, 0.209 µM (active).
With `Cn1c(=S)c2nc(SCc3cccnc3)[nH]c2n(C)c1=O`, the GI50 with OVCAR-5, with OVCAR-4, in the assay with SNB-19, in the assay with SK-MEL-28, in the assay on COLO 205 and in the assay with SR was > 100 µM (inactive) in each case. The GI50 is > 100 µM (inactive) in the assay on NCI-H226; > 100 µM (inactive) with NCI-H460; 97.7 µM (inactive) in the assay with SF-295; 93.8 µM (inactive) with Malme-3M; > 100 µM (inactive) in the assay on EKVX; > 100 µM (inactive) with HOP-92. For the same compound, the GI50 was > 100 µM (inactive) with HT-29; > 100 µM (inactive) in the assay on OVCAR-8; > 100 µM (inactive) in the assay on UACC-257; more than 100 µM in the assay with HCT-15; > 100 µM (inactive) in the assay on NCI-H23; > 100 µM (inactive) with HCC 2998.
On to `OC(COc1cccc2ccccc12)CN1CCOCC1` (stereo unspecified), for which the GI50 in the assay with OVCAR-5, in the assay with OVCAR-4, in the assay with SNB-19, in the assay on SK-MEL-28, with COLO 205 and in the assay on SR was > 100 µM (inactive) each time. For the same compound, the GI50 in the assay with NCI-H226 was > 100 µM (inactive); in the assay with NCI-H460, > 100 µM (inactive); in the assay with SF-295, > 100 µM (inactive); with Malme-3M, > 100 µM (inactive); in the assay with EKVX it was 95.1 µM (inactive); in the assay with HOP-92, 22.2 µM (inactive). The GI50 is > 100 µM (inactive) with HT-29; > 100 µM (inactive) in the assay with OVCAR-8; > 100 µM (inactive) in the assay with UACC-257; more than 100 µM in the assay on HCT-15; > 100 µM (inactive) in the assay with NCI-H23; > 100 µM (inactive) in the assay with HCC 2998.
As for `CCOC(=O)N1c2ccccc2N(C(=O)OCC)C1CC(=O)/C=C/c1ccccc1`, the GI50 in the assay with OVCAR-5 was 2.65 µM (inactive); with OVCAR-4 it was 2.23 µM (inactive); with SNB-19 it was 3.28 µM (inactive); with SK-MEL-28, 7.57 µM (inactive); with COLO 205, 2.04 µM (inactive); with SR it was 2.3 µM (inactive). In addition, the GI50 is 2.81 µM (inactive) with NCI-H226; 3.03 µM (inactive) with NCI-H460; 4.05 µM (inactive) with SF-295; 4.06 µM (inactive) with Malme-3M; 2.79 µM (inactive) in the assay on EKVX; 1.97 µM (inactive) in the assay with HOP-92. In addition, the GI50 was 2.94 µM (inactive) with HT-29; 2.65 µM (inactive) with OVCAR-8; 6.49 µM (inactive) in the assay with UACC-257; 2.98 µM in the assay on HCT-15; 2.88 µM (inactive) with NCI-H23; 3 µM (inactive) with HCC 2998.
Regarding `CC(C)(C)OC(=O)NC(Cc1ccccc1)C(=O)OCN1C(=O)C2C3C=CC(C2C1=O)C1C2C(=O)N(COC(=O)C(Cc4ccccc4)NC(=O)OC(C)(C)C)C(=O)C2C31` (stereo unspecified), the GI50 was 53.3 µM (inactive) in the assay with OVCAR-5; 37.1 µM (inactive) in the assay on OVCAR-4; 34.3 µM (inactive) with SNB-19; 34.6 µM (inactive) in the assay on SK-MEL-28; 8.22 µM (inactive) in the assay on COLO 205; 0.176 µM (active) in the assay on SR. Moreover, the GI50 with NCI-H226 is 29.4 µM (inactive); in the assay on NCI-H460 it was 3.82 µM (inactive); in the assay with SF-295 it was 34.4 µM (inactive); in the assay on Malme-3M, 39.4 µM (inactive); in the assay on EKVX it was 23.6 µM (inactive); in the assay on HOP-92, 86.5 µM (inactive). In addition, the GI50 was 12.9 µM (inactive) with HT-29; 30.1 µM (inactive) in the assay on OVCAR-8; > 56.4 µM (inactive) in the assay on UACC-257; 43.2 µM in the assay with HCT-15; 38.8 µM (inactive) in the assay on NCI-H23; 40 µM (inactive) in the assay with HCC 2998.
Consider `O=c1oc2ccc([N+](=O)[O-])cc2c(Nc2ccc3c(c2)Oc2ccccc2O3)c1[N+](=O)[O-]`, for which the GI50 with OVCAR-5 was 38 µM (inactive); in the assay on OVCAR-4, 42 µM (inactive); with SNB-19, 28.6 µM (inactive); with SK-MEL-28 it was 39.9 µM (inactive); in the assay with COLO 205 it was 21.7 µM (inactive); in the assay on SR, 31 µM (inactive). Also, the GI50 in the assay on NCI-H226 is 32.4 µM (inactive); in the assay with NCI-H460 it was 30 µM (inactive); with SF-295 it was 43.6 µM (inactive); in the assay with Malme-3M it was 69.8 µM (inactive); with EKVX, 31.6 µM (inactive); with HOP-92, 19.2 µM (inactive). For the same compound, the GI50 with HT-29 was 35.2 µM (inactive); with OVCAR-8, 26.8 µM (inactive); in the assay on UACC-257 it was 26.2 µM (inactive); in the assay with HCT-15, 31.1 µM; with NCI-H23, 25.1 µM (inactive); in the assay with HCC 2998 it was 27.7 µM (inactive).
As for `COc1ccc(/C=N/NS(=O)(=O)c2ccc(/C=C3\NC(=O)N(C)C3=O)cc2)cc1`, the GI50 in the assay on OVCAR-5 is > 100 µM (inactive); in the assay on OVCAR-4, 43.9 µM (inactive); in the assay on SNB-19, 80.9 µM (inactive); in the assay on SK-MEL-28, > 100 µM (inactive); with COLO 205, > 100 µM (inactive); in the assay on SR, > 100 µM (inactive). Also, the GI50 was > 100 µM (inactive) in the assay with NCI-H226; 37.5 µM (inactive) with NCI-H460; 55 µM (inactive) with SF-295; > 100 µM (inactive) with Malme-3M; 89.9 µM (inactive) in the assay with EKVX; 58.7 µM (inactive) with HOP-92. Moreover, the GI50 in the assay with HT-29 was > 100 µM (inactive); in the assay on OVCAR-8 it was 56.2 µM (inactive); in the assay with UACC-257 it was 57.8 µM (inactive); in the assay on HCT-15, more than 100 µM; in the assay with NCI-H23 it was 92.9 µM (inactive); with HCC 2998, > 100 µM (inactive).
Take `c1cc2cc3c4c5c(cc6ccc7cc8cc9c%10c8c8c7c6c5c8c5c%10c(c1C9N1CCOCCOCCOCCOCCOCC1)c2c45)C3` (stereo unspecified): the GI50 in the assay on OVCAR-5, in the assay with OVCAR-4, in the assay on SNB-19, in the assay on SK-MEL-28, in the assay on COLO 205 and in the assay on SR was > 100 µM (inactive) throughout. Further, the GI50 with NCI-H226, in the assay on NCI-H460, in the assay with SF-295, in the assay with Malme-3M, in the assay on EKVX and in the assay on HOP-92 was > 100 µM (inactive) each time. For the same compound, the GI50 is > 100 µM (inactive) in the assay with HT-29; > 100 µM (inactive) in the assay with OVCAR-8; > 100 µM (inactive) in the assay with UACC-257; more than 100 µM in the assay with HCT-15; > 100 µM (inactive) in the assay with NCI-H23; > 100 µM (inactive) with HCC 2998.
For the compound `CCCCNc1nc(C#N)c(N)s1`, the GI50 in the assay with OVCAR-5, in the assay with OVCAR-4, with SNB-19, with SK-MEL-28, in the assay with COLO 205 and in the assay with SR was > 100 µM (inactive) in each case. The GI50 with NCI-H226, in the assay on NCI-H460, in the assay on SF-295, in the assay on Malme-3M, in the assay with HOP-92 and in the assay with HT-29 was > 100 µM (inactive) in each case. Besides, the GI50 with OVCAR-8 was > 100 µM (inactive); in the assay with UACC-257 it was > 100 µM (inactive); in the assay with HCT-15, more than 100 µM; in the assay on NCI-H23 it was > 100 µM (inactive); with HCC 2998, > 100 µM (inactive).
For the compound `C=CCOC1OC(CS(=O)(=O)O)C(O)C(O)C1O` (stereo unspecified), the GI50 with OVCAR-5, in the assay on OVCAR-4, in the assay with SNB-19, in the assay with SK-MEL-28, in the assay on COLO 205 and in the assay with SR was > 100 µM (inactive) throughout. Besides, the GI50 in the assay on NCI-H226, in the assay with NCI-H460, with SF-295, in the assay with Malme-3M, in the assay on HOP-92 and in the assay with HT-29 was > 100 µM (inactive) each time. Also, the GI50 was > 100 µM (inactive) with OVCAR-8; > 100 µM (inactive) in the assay with UACC-257; more than 100 µM with HCT-15; > 100 µM (inactive) with NCI-H23; > 100 µM (inactive) with HCC 2998.
